Source: patent publication US10865216B2, “Tricyclic Gyrase inhibitors” (MERCK SHARP & DOHME CORP., priority 2012, dated 2020)
≈ marks a conversion by molar mass, not a printed value. Where two headings read alike, the source gives them in different places.

Experiments:
[1] = test system: S. aureus ATCC 13709; experiment: MIC, S. aureus ATCC 13709; type: cell-based; conditions: for MIC: Staphylococcus aureus
[2] = test system: E. coli ATCC 25922; experiment: MIC, E. coli ATCC 25922; type: cell-based; conditions: for MIC: Escherichia coli
[3] = ATCC13709, S. aureus, Alamar Blue read after overnight incubation at 35° C., read-out: MIC Sa
[4] = ATCC25922, E. coli, Alamar Blue read after overnight incubation at 35° C., read-out: MIC Ec
[5] = S. aureus, Alamar Blue read after overnight incubation at 35° C.
[6] = E. coli, Alamar Blue read after overnight incubation at 35° C.

CNc1cc(F)cc2c1[nH]c1nc(Oc3cnc4c(c3)C(=O)OC4(C)C)nc(N3CC4C[C@@H](N)C4C3)c12 (stereo partly drawn) [Compound 10.73]
MIC Sa ([1]; Table 18, Sa): ≤ 0.5 µg/mL | MIC Ec ([2]; Table 18, Ec): ≤ 0.5 µg/mL

CNc1cccc2c1[nH]c1nc(Sc3cnc4cccnc4c3)nc(N3CCN(C(C)=O)CC3)c12 [Compound 1.67]
MIC [1, 3]: ≤ 0.5 µg/mL | MIC [2, 4]: > 64 µg/mL

CNc1cc(F)cc2c1[nH]c1nc(Oc3cnc(SC)nc3)nc(N3CC4CCC(N)C4C3)c12 (stereo not drawn) [Compound 4.200]
MIC Sa [1, 5]: ≤0.5 µg/mL | MIC Ec [2, 6]: ≤0.5 µg/mL

CNc1cc(F)cc2c1[nH]c1nc(Oc3cncc(Cl)c3)nc(N3CC(N)C3)c12 [Compound 4.277]
MIC Sa [1, 5]: ≤0.5 µg/mL | MIC Ec [2, 6]: ≤0.5 µg/mL

CNc1cccc2c1[nH]c1nc(Oc3ccc[n+]([O-])c3)cc(Oc3cnc(C)nc3)c12 [Compound 3.39]
MIC [1, 3]: 2 µg/mL (≈ 4.83 µM) | MIC [2, 4]: 64 µg/mL (≈ 154 µM)

CNc1cc(F)cc2c1[nH]c1nc(Nc3cnc4ccnn4c3)nc(N3C[C@H]4C[C@@H]3C[C@H]4N)c12 [Compound 10.45]
MIC Sa ([1]; Table 18, Sa): ≤ 0.5 µg/mL | MIC Ec ([2]; Table 18, Ec): ≤ 0.5 µg/mL

CNc1cc(F)cc2c1[nH]c1nc3nc(c12)NCCCCNC(=O)CSc1ncc(cn1)O3
MIC ([1]; ATCC13709, Table 15, R2 is joined to R4, read-out: SA MIC): ≤ 0.5 µg/mL | MIC ([2]; ATCC25922, Table 15, R2 is joined to R4, EC8 not defined, read-out: EC8 MIC): 2 µg/mL (≈ 4.27 µM)

CNc1cc(F)cc2c1[nH]c1nc(Oc3cnc4c(Cl)cnn4c3)nc(N3C[C@H]4C[C@@H]3C[C@H]4N)c12 [Compound 10.23]
MIC Sa ([1]; Table 18, Sa): ≤ 0.5 µg/mL | MIC Ec ([2]; Table 18, Ec): ≤ 0.5 µg/mL

CNc1cccc2c1[nH]c1nc(Sc3cnc4ccc[n+]([O-])c4c3)nc(N3CC[C@H](N)C3)c12 [Compound 1.14]
MIC [1, 3]: ≤ 0.5 µg/mL | MIC [2, 4]: 1 µg/mL (≈ 2.18 µM)

CNc1ncnc2c1[nH]c1nc(Oc3cnc(C)nc3)nc(N3CCC4(CC4N)C3)c12 (stereo not drawn) [Compound 7.09]
MIC [1, 3]: 8 µg/mL (≈ 19.1 µM) | MIC [2, 4]: > 64 µg/mL

CNc1cccc2c1[nH]c1nc(Sc3cnc4ccc[n+]([O-])c4c3)nc(N3CC4C(N)C4C3)c12 (stereo not drawn) [Compound 1.49]
MIC Sa [1, 5]: ≤0.5 µg/mL | MIC Ec [2, 6]: ≤0.5 µg/mL

CNc1cc(F)cc2c1[nH]c1nc(Oc3cnc(C(C)O)nc3)nc(N(C)C)c12 (stereo not drawn) [Compound 10.101]
MIC Sa ([1]; Table 18, Sa): ≤ 0.5 µg/mL | MIC Ec ([2]; Table 18, Ec): ≤ 0.5 µg/mL

CNc1cccc2c1[nH]c1nc(Oc3cncnc3)cc(N3C[C@H](NCC4CC4)C4(CC4)C3)c12 [Compound 3.12]
MIC [1, 3]: 1 µg/mL (≈ 2.2 µM) | MIC [2, 4]: 8 µg/mL (≈ 17.6 µM)

CNc1cc(F)cc2c1[nH]c1nc(Oc3cnc(C4CC4)nc3)nc(N3CC4(CCC4N)C3)c12 (stereo not drawn) [Compound 4.244]
MIC Sa [1, 5]: ≤0.5 µg/mL | MIC Ec [2, 6]: ≤0.5 µg/mL

COc1cccc2c1[nH]c1nc(Oc3cccc(C#N)c3)nc(N3CC4C(N)C4C3)c12 (stereo not drawn) [Compound 2.15]
MIC Sa [1, 5]: 1 µg/mL (≈ 2.42 µM) | MIC Ec [2, 6]: >32 µg/mL

CNc1cccc2c1[nH]c1nc(Sc3cnc4cccnc4c3)nc(N3CCC(C)(N)C3)c12 (stereo not drawn) [Compound 1.59]
MIC [1, 3]: 1 µg/mL (≈ 2.19 µM) | MIC [2, 4]: 4 µg/mL (≈ 8.76 µM)

CNc1cc(F)cc2c1[nH]c1nc(Cc3cnc(C)nc3)nc(N3CC4CC(N)C4C3)c12 (stereo not drawn)
SA MIC ([1]; Table 11, compounds wherein L = CH2): ≤ 0.5 µg/mL | EC8 MIC ([2]; Table 11, L = CH2, EC8 not defined): 1 µg/mL

CCOC(=O)c1csc(Nc2nc(N3C[C@H]4C[C@@H]3C[C@H]4N)c3c(n2)[nH]c2c(NC)cc(F)cc23)n1 [Compound 10.42]
MIC Sa ([1]; Table 18, Sa): ≤ 0.5 µg/mL | MIC Ec ([2]; Table 18, Ec): 1 µg/mL (≈ 2.01 µM)

CNc1cc(F)cc2c1[nH]c1nc(Oc3cnc4ccoc4c3)nc(N3CC4C(N)C4C3)c12 (stereo not drawn) [Compound 4.291]
MIC Sa [1, 5]: ≤0.5 µg/mL | MIC Ec [2, 6]: ≤0.5 µg/mL

CNc1cc(F)cc2c1[nH]c1nc(Oc3cnc(C)nc3)nc(C3=CCNC3)c12
MIC ([1]; ATCC13709, Table 16, new R4 substituents, read-out: SA MIC): ≤ 0.5 µg/mL | MIC ([2]; ATCC25922, Table 16, new R4 substituents, EC8 not defined, read-out: EC8 MIC): 8 µg/mL (≈ 20.4 µM)

CNc1cc(F)c(C#N)c2c1[nH]c1nc(Oc3cnc(C)nc3)nc(N3CC4(CC[C@H]4N)C3)c12 [Compound 10.71]
MIC Sa ([1]; Table 18, Sa): ≤ 0.5 µg/mL | MIC Ec ([2]; Table 18, Ec): ≤ 0.5 µg/mL

CNc1cc(F)cc2c1[nH]c1nc(Oc3cnc(C)nc3)nc(N3CC4CCNC4C3)c12 (stereo not drawn) [Compound 4.156]
MIC Sa [1, 5]: ≤0.5 µg/mL | MIC Ec [2, 6]: ≤0.5 µg/mL

CNc1cccc2c1[nH]c1nc(Sc3cncnc3)nc(N3CC4C(N)C4C3)c12 (stereo not drawn) [Compound 1.43]
MIC [1, 3]: 2 µg/mL (≈ 4.94 µM) | MIC [2, 4]: 8 µg/mL (≈ 19.8 µM)

CNc1cc(F)cc2c1[nH]c1nc(Oc3cncc(-c4nnnn4C)c3)nc(N3CCC(N)C3)c12 (stereo not drawn) [Compound 4.169]
MIC Sa [1, 5]: 2 µg/mL (≈ 4.21 µM) | MIC Ec [2, 6]: 8 µg/mL (≈ 16.8 µM)

CNc1cccc2c1[nH]c1nc(Sc3cnc4ccc[n+]([O-])c4c3)nc(N3CC4C(C3)C4NC(=O)[C@H](C)N)c12 (stereo partly drawn) [Compound 1.52]
MIC [1, 3]: 1 µg/mL (≈ 1.85 µM) | MIC [2, 4]: 16 µg/mL (≈ 29.5 µM)

CNc1cc(F)cc2c1[nH]c1nc(Oc3ccc(C#N)nc3)nc(N3CCC(N)C3)c12 (stereo not drawn) [Compound 4.331]
MIC Sa [1, 5]: ≤0.5 µg/mL | MIC Ec [2, 6]: ≤0.5 µg/mL

CNc1ncc(Oc2nc(N3CCC4(CC[C@H]4N)C3)c3c(n2)[nH]c2c(NC)cc(F)cc23)cn1 (stereo partly drawn) [Compound 10.102]
MIC Sa ([1]; Table 18, Sa): ≤ 0.5 µg/mL | MIC Ec ([2]; Table 18, Ec): ≤ 0.5 µg/mL
